Numbers after ± are expanded uncertainties.
Assay: Solid-liquid equilibrium temperature
Conditions: 101 kPa, visual observation

Row | Solid-liquid equilibrium temperature [K] | Compound
1 | 278.11 ± 4 | COC(=O)OC [dimethyl carbonate]
2 | 352.7 ± 4 | O=C(Oc1ccccc1)Oc1ccccc1 [diphenyl carbonate]

Assay: not given
Conditions: 298.15 K; 101.33 kPa; Liquid; Vibrating tube method

Row | mass density [kg/m3] | Compound
3 | 969.18 ± 0.07 | CCOC(=O)OCC [diethyl carbonate]
4 | 1063.26 ± 0.08 | COC(=O)OC [dimethyl carbonate]
5 | 938.35 ± 0.13 | CCCOC(=O)OCCC [dipropyl carbonate]
6 | 785.02 ± 0.13 | CCO [ethanol]
7 | 800.06 ± 0.12 | CCCO [propan-1-ol]
8 | 780.79 ± 0.13 | CC(C)O [propan-2-ol]
